Assay results: patent US9101638B2, “Boronic acid derivatives and therapeutic uses thereof” (Rempex Pharmaceuticals, Inc., priority 2013, dated 2015)

Experiments:
KP1004 (KPC-2) = test: Potentiation of biapenem, strain KP1004; format: cell-based; conditions: strain KP1004 KPC-2, biapenem alone
Experimental: (§1) Biapenem was present in the test medium at 1 μg/mL. […] Table 3 summarizes the BLI potency of biapenem potentiation (MPC@1) for two strains overexpressing class A (KPC) and class D (OXA-48) carbapenemases. Biapenem MIC for each strain is also shown.

PAM1154/KPC-2 = test: Biapenem potentiation in PAM1154/KPC-2 (MexAB-OprM lacking); format: cell-based, Pseudomonas aeruginosa; conditions: Pseudomonas aeruginosa
Experimental: (§2) Efflux of BLIs from Pseudomonas aeruginosa by the MexAB-OprM efflux pump was also evaluated. […] Due to expression of KPC-2 both strains became resistant to biapenem. […] Potency of BLIs to potentiate biapenem in these strains was determined. […] The ratio of MPC64 values for each BLI in PAM1032/KPC-2 (efflux proficient) and PAM1154/KPC-2 (efflux deficient) was determined to generate the Efflux Index (EI).

KP1086 (OXA-48) = test: Potentiation of biapenem, strain KP1086; format: cell-based; conditions: strain KP1086 OXA-48, biapenem alone
Experimental: as §1

PAM1032/KPC-2 = test: Biapenem potentiation in PAM1032/KPC-2 (MexAB-OprM overexpressed); format: cell-based, Pseudomonas aeruginosa; conditions: Pseudomonas aeruginosa
Experimental: as §2

ec302 (TEM-10) = test: Potentiation of tigemonam, strain ec302; format: cell-based; conditions: strain ec302 TEM-10, tigemonam alone
KP1010 (SHV-12) = test: Potentiation of tigemonam, strain KP1010; conditions: strain KP1010 SHV-12, tigemonam alone
ec308 (SHV-5) = test: Potentiation of tigemonam, strain ec308; format: cell-based; conditions: strain ec308 SHV-5, tigemonam alone
KP1009 (CTX-M-15) = test: Potentiation of tigemonam, strain KP1009; conditions: strain KP1009 CTX-M-15, tigemonam alone
EC1010 (CMY-6) = format: cell-based; conditions: strain EC1010 CMY-6, tigemonam alone

Row | Structure (SMILES) | MIC (KP1004 (KPC-2)) [µg/mL] | MIC (PAM1154/KPC-2) [µg/mL] | MIC (KP1086 (OXA-48)) [µg/mL] | MIC (PAM1032/KPC-2) [µg/mL] | Tigemonam MIC (ec302 (TEM-10)) [µg/mL] | Tigemonam MIC (KP1010 (SHV-12)) [µg/mL] | Tigemonam MIC (ec308 (SHV-5)) [µg/mL] | Tigemonam MIC (KP1009 (CTX-M-15)) [µg/mL] | Tigemonam MIC (KP1005 (CTX-M-14)) [µg/mL] | Tigemonam MIC (EC1010 (CMY-6)) [µg/mL]
1 | C[C@@H](O)[C@H]1C(=O)N2C(C(=O)[O-])=C(SC3Cn4cnc[n+]4C3)[C@H](C)[C@H]12 (stereo partly shown) [Biapenem, reference compound] | 32 | 32 | 16 | 32 | – | – | – | – | – | –
2 | CC1(C)[C@H](NC(=O)/C(=N\OCC(=O)O)c2csc(N)n2)C(=O)N1OS(=O)(=O)O [Tigemonam, reference compound] | – | – | – | – | >64 | >64 | >64 | >64 | >64 | 16
